Test results taken from article PMC6968383, “Design, synthesis, in vitro and in vivo evaluation of benzylpiperidine-linked 1,3-dimethylbenzimidazolinones as cholinesterase inhibitors against Alzheimer’s disease” (Journal of Enzyme Inhibition and Medicinal Chemistry, 2019).

What was measured:
[1] = DPPH radical scavenging activity; details: at 1 mM
Method: Compounds 15b and 15j were selected to be evaluated for their 1,1-diphenyl-2-picrylhydrazyl radical scavenging activity (DPPH) compared with trolox as reference compound[12].
(§1) Corresponding Authors: clarissa0710@163.com (Y. Chen); sunhaopeng@163.com (H. P.
(§2) 1.1. Inhibition of self-induced Aβ1–42 aggregation
(§3) Inhibitory effect of the compounds on self -induced Aβ1–42 aggregation was determined through a thioflavin T (ThT)-(T3516, Sigma-Aldrich) binding assay.
(§4) Firstly, aliquots of 2 μL of Aβ 1–42 (AS-64129–05 Anaspec Inc.) containing 2 mg/mL HFIP (1,1,1,3,3,3-hexafluoro-2-propanol, 52517 (Sigma-Aldrich) were stocked in DMSO).
(§5) Then, they were diluted with 0.215M sodium phosphate buffer (pH 8.0) to the final concentration of 500 μM. Test compounds were dissolved in DMSO and then prepared at a concentration of 50 μM by the buffer. Resveratrol was used as a positive control. […]
(§6) Fluorescence intensity was read (excitation wavelength 450 nm, emission wavelength 485 nm) on a microplate reader (Thermo, Varioskan Flas h 3001, USA).
(§7) The calculation of the inhibitory rate of Aβ 1–42 self-induced aggregation was performed using the following equation: (1 -IFi/IFc) × 100 %. IFi and IFc were the fluorescence intensities measured in the presence and absence of inhibitors, respe ctively, after subtracting the background fluorescence of the 5mM ThT solution. Each compound was measured in triplicate. […]

[2] = system: HepG2 cells; experiment: In vitro hepatotoxicity on HepG2 cell line (MTT); format: cell-based; details: 5, 15, 50 µM, 24 h, compared to donepezil
Method: PC12 cell and HepG2 cell (human hepatocellular liver carcinoma cell line purchased from Institute of Materia of Chinese Academy of Medical Science), were grown in DMEM supplemented with 10% FBS at 37 °C in a humidified atmosphere containing 5% CO2. For the experiments, cells (6 × 10^3 cells/well) were seeded in 96-well plate in complete medium. […]

[3] = biological target: T1, AChE (EC 3.1.1.7) from human (Homo sapiens, UniProt P22303); experiment: human AChE inhibition assay, Ellman's method; format: biochemical; details: for IC50: human AChE, mean ± SEM, read-out: huAChE IC50
T1 construct: purchased Sigma-Aldrich
T1 sequence (P22303 32-614): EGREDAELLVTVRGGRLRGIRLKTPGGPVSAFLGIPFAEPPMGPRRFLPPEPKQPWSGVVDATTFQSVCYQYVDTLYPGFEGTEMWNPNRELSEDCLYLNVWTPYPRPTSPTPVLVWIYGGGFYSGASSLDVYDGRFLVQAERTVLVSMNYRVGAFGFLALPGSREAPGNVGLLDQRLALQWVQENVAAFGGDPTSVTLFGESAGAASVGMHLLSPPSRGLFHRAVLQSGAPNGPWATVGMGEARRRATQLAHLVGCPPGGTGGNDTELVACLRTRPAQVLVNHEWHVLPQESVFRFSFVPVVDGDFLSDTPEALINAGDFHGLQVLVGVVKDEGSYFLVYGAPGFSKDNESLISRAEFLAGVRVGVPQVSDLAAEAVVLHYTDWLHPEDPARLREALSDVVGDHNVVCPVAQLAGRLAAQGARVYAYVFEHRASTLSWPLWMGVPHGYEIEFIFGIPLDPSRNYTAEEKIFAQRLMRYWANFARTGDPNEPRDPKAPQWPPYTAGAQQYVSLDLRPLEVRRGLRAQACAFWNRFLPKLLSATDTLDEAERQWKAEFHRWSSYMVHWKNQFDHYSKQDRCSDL
Method: (§8) ; The inhibitory activities of the target compounds towards AChE (from Electrophorus electricus (electric eeAChE, Sigma-Aldrich) and horse serum BChE (eqBChE, Sigma-Aldrich) or human AChE – huAChE; human BuChE – huBuChE (huAChE, huBuChE, Sigma-Aldrich) were measured by Ellman’s method. In 96-well plates, a mixture of phosphate buffer (0.1 M, pH 8.0, […]), 5,5′-dithiobis-2-nitrobenzoic acid (DTNB, 60 µL), acetylcholinestrase or butyrylcholinesterase (20 µL, 5 IU/mL) and different concentration of the compound solution (30 µL) was pre-incubated for 5 min followed by the addition of the substrate (acetylthiocholine iodide or butyrylthiocholine iodide, 20 µL). Changes in absorbance were measured at 412 nm by using microplate reader (Thermo, Varioskan Flash 3001, USA). The measurement of each concentration for each compound was detected in triplicate. GraphPad Prism 6.0 (GraphPad Software, Inc., La Jolla, CA) was used for data processing. The inhibition curve was fitted by plotting percentage enzyme activity (100% for the reference) versus the logarithm of the concentration of tested compound. The half-maximal inhibitory concentration (IC50) values were calculated according to the inhibition curve and the data were shown in the layout of mean ± SEM by GraphPad Prism 6.0.

[4] = biological target: T2, Aβ1–42 (Homo sapiens, UniProt P05067); experiment: Inhibition of self-induced Aβ1–42 aggregation (thioflavin T); format: biochemical; details: under 50 µM, ThT fluorometric assay
T2 construct: self-induced Aβ1–42 aggregation; purchased Anaspec Inc. AS-64129–05
T2 sequence (P05067 672-713): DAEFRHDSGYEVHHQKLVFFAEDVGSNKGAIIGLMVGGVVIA
Method: Compounds 15b and 15j were evaluated for their inhibitory capacity on self-induced Aβ1–42 aggregation based on a thioflavin T-based fluorometric assay. […]
as §1, §2, §3, §4, §5, §6, §7

[5] = system: liver; experiment: Liver histopathological study (HE staining); details: 36 h after administration, compared to control group
Description: Figure 7. […] HE staining, original magnification ×200.

[6] = system: PC12 cells; experiment: Neuroprotection against H2O2-induced cell death in PC12 cells; format: cell-based; details: PC12 cells pre-treated 24 h, 800 µM H2O2
Method: We evaluated the cytoprotective effects of 15b and 15j on H2O2-induced cell damage. Treatment with 800 µM H2O2 for 24 h caused over 55% death rate of PC12 cells compared with the control group (Supplementary Figure S2(A)).
Figure S1. (A) The inhibitory effect of 15b and 15j on i Aβ1-42 self-aggregation. (B) […]
1.3. Neuroprotection assay against H2O2-induced cell death in PC12 cells Cytotoxicity was determined by using 3-(4,5-dimethylthiazol-2-yl)-2,5-diphenyltetrazoliumbromide (MTT) assay. The PC-12 cell line was purchased from Cell Bank of the Chinese Academy of Sciences (Shanghai, China). MTT was purchased from Sigma (M2128, St. Louis, MO). It was dissolved in phosphate buffered saline (PBS) to a stock concentration of 5 mg mL-1 and stored at - 20 °C. PC-12 cells were plated in 96-well plates, raised to a population of 1 × 10^4 cells per well, and incubated overnight. […]
Then the solution was removed and 150.0 μL of DMSO was added into each well to dissolve the MTT formazan crystals. […] The absorbance values (OD value) were read at 570 nm by microplate reader (Thermo, Varioskan Flash 3001, USA). The inhibitory rate for each concentration of the test compound was calculated by the equation as follows: […]
Here, ODtest, ODblank, and ODcontrol stand for the OD value from test compound, background, and DMSO, respectively. The IC50 values were calculated by GraphPad […]

[7] = biological target: T3, BChE (EC 3.1.1.8) from human (Homo sapiens, UniProt P06276); experiment: human BChE inhibition assay, Ellman's method; format: biochemical; details: mean ± SEM, read-out: huBChE IC50
T3 construct: purchased Sigma-Aldrich
T3 sequence (P06276 29-602): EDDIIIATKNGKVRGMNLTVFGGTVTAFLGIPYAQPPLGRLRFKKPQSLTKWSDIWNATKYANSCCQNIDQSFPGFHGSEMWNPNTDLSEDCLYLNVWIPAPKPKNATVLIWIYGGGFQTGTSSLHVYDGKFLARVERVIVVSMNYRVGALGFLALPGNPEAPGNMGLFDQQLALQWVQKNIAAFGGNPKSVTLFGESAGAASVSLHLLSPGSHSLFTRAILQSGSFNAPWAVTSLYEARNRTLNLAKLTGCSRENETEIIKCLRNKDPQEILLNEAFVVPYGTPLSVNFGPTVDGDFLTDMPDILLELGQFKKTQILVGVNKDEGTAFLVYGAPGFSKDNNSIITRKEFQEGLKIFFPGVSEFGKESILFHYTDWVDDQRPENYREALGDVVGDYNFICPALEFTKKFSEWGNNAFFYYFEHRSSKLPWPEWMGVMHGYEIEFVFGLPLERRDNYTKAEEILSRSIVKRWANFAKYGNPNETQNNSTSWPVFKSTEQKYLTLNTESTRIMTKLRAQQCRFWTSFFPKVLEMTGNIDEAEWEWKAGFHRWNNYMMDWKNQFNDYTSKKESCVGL
Method: as §8

SMILES	DPPH inhibitory rate [1] [%]	toxicity on HepG2 cell viability [2]	IC50 [3] [nM]	inhibition of self-induced Aβ1–42 aggregation [4]	morphologic changes in liver [5]	cytoprotective effect on H2O2-induced cell damage [6]	IC50 [7] [nM]	SI (selectivity index = AChE IC50/BChE IC50) ([3]; huAChE IC50 / huBChE IC50)
Cc1ccccc1CN1CCC(CNS(=O)(=O)c2ccc3c(c2)n(C)c(=O)n3C)CC1 [Compound 15b, 1,3-dimethyl-N-((1–(2-methylbenzyl)piperidin-4-yl)methyl)-2-oxo-2,3-dihydro-1H-benzo[d]imidazole-5-sulphonamide]	12.2	low toxicity on cell viability	1490 ± 430	no inhibitory activities	did not result in remarkable morphologic changes in liver	the mortality rate of PC12 cells caused by H2O2 was reduced	1330 ± 550	–
Cn1c(=O)n(C)c2cc(S(=O)(=O)NCC3CCN(Cc4cccc(Br)c4)CC3)ccc21 [Compound 15j, N-((1–(3-bromobenzyl)piperidin-4-yl)methyl)-1,3-dimethyl-2-oxo-2,3-dihydro-1H-benzo[d]imidazole-5-sulphonamide]	6.3	low toxicity on cell viability	1250 ± 480	no inhibitory activities	did not result in remarkable morphologic changes in liver	the mortality rate of PC12 cells caused by H2O2 was reduced	660 ± 220	1.89
